{
  "source": "patent US20080085888A1",
  "about": "“Therapeutic Combinations” (priority 2006, published 2008)",
  "key": {"[1]": {"system": "rodent", "settings": "cited from earlier work; for effect on haloperidol-induced catalepsy: Levin and Lippiello 1999"}, "[2]": {"system": "male, Long Evans rats", "experiment": "Spontaneous locomotor activity (sLMA), quetiapine-induced sedation", "text": "I. Attenuation of Quetiapine-Induced Sedation Using Spontaneous Locomotor Activity (sLMA)\nQuetiapine is known to have sedative properties in humans. Quetiapine can induce sedation in rats and is manifested in various behaviors including reductions in spontaneous locomotor activity (sLMA). A test compound that increases sLMA in quetiapine treated rats may reduce quetiapine-induced sedation in human subjects.\nThe general procedure was to assess the effect of a particular drug on sLMA in rats by administering the drug after baseline assessment and then waiting an appropriate amount of time for the drug to achieve significant levels in plasma and brain.\nQuetiapine was solubilized in saline plus some drops of 85% lactic acid and sonicated for around 20-30 minutes then adjusted with NaOH 1N for pH ˜4.8 to 5.0. The solution was stirred during the experiment to ensure uniform composition prior to administration. Quetiapine was administered by s.c. injection 15 minutes before testing. The dose volume was 4 ml/kg.\nCompound b was dissolved in H2O and administered by oral gavage (p.o.) 30 minutes before testing with a dose volume of 1 ml/kg.\nThe effect of Compound b alone on sLMA was tested by administering doses of 0.006, 0.019, 0.06 or 0.19 mg/kg by oral gavage (p.o.) 30 minutes before testing. […]\nExploratory activity was monitored and quantified using open field activity systems (hardware and software) purchased from Med Associates. […]\nStatistical analysis was made of total distance traveled over the 5 minutes test period for a spontaneous locomotor activity using one-way analysis ANOVA and Turkey's multiple-range analysis. All values are expressed as mean and SD."}, "[3]": {"system": "male Long Evans rats", "experiment": "Blockade of D-amphetamine-induced locomotor activity (LMA)", "type": "in vivo, rat", "settings": "for attenuation of amphetamine-induced locomotor activity: D-amphetamine 1 mg/kg s.c."}, "[4]": {"system": "CF-1 male mice", "experiment": "Haloperidol-induced catalepsy model of EPS", "type": "in vivo, mouse", "text": "III. Blockade of Haloperidol-Induced Catalepsy\nHaloperidol-induced catalepsy model of EPS: Haloperidol is a typical or first-generation antipsychotic drug that while effective is prone to produce extrapyramidal symptoms (EPS) in humans. Other antipsychotic drugs (e.g. chlorpromazine, risperidone) can also cause EPS in patients and this side effect can limit the use of these drugs. In rodents, drug-induced catalepsy (a trance-like state of waxy immobility) can be used to assess the risk of EPS for antipsychotic drugs. Haloperidol reliably induces catalepsy in mice and rats. Test compounds that reduce catalepsy in haloperidol-treated rats may reduce antipsychotic drug-induced EPS.\nHaloperidol-induced catalepsy in mice model: CF-1 male mice (Charles River, 20-30 gm, 10 mice per dose) were dosed orally with compound (b) at 0.06, 0.19, 0.6 and 1.9 mg/kg or vehicle (distilled water). Thirty minutes later, all mice were dosed with 2 mg/kg of haloperidol s.c. At 60 minutes and 4 hours after haloperidol dosing, the experimenter gently placed both forepaws of each animal on a metal bar (4 mm in diameter) that was fixed horizontally 5 cm above the test floor. The length of time (in seconds) during which each mouse maintained the initial forepaw bar position was recorded (cataleptic pose). Maximum cut-off time was 60 seconds. The same experimental design was performed on two consecutive days, and results were combined from both experiments. Therefore, the final results are from groups of 20 mice."}},
  "data": [
    {"smiles": "CNCC/C=C/c1cccnc1", "note": "[RJR 2403]", "values": [
      {"measurement": "effect on haloperidol-induced catalepsy", "setting": "[1]", "result": "did not significantly worsen haloperidol-induced catalepsy, they did not reduce it either"}
    ]},
    {"smiles": "CN1CCCC1c1cccnc1", "note": "(centres unmarked) [nicotine]", "values": [
      {"measurement": "effect on haloperidol-induced catalepsy", "setting": "[1]", "result": "did not significantly worsen haloperidol-induced catalepsy, they did not reduce it either"},
      {"measurement": "effect on catalepsy in rodent", "setting": "[1]; Sanberg et al. 1993", "result": "can worsen catalepsy"}
    ]},
    {"smiles": "CN[C@@H](C)C/C=C/c1cncc(OC(C)C)c1.O=C(O)c1ccc(O)cc1", "note": "[Compound b, (2S)-(4E)-N-Methyl-5-[3-(5-isopropoxypyridin)yl]-4-penten-2-amine p-hydroxybenzoate]", "values": [
      {"measurement": "reduction in sLMA compared to vehicle-vehicle controls", "setting": "[2]; Compound b 0.19 mg/kg p.o. administered before quetiapine 40 mg/kg s.c. (combination)", "result": "did not result in a significant reduction in sLMA"},
      {"measurement": "suppression of sLMA", "setting": "[2]; Compound b 0.19 mg/kg p.o. and then vehicle", "result": "no significant suppression of sLMA"},
      {"measurement": "effect on sLMA (total distance traveled)", "setting": "[2]; Compound b alone, 0.006, 0.019, 0.06 and 0.19 mg/kg p.o., 30 min before testing, 5 min test", "result": "no significant effect"},
      {"measurement": "reduction of D-amphetamine-induced locomotor activity", "setting": "[3]; Compound b alone 0.19 mg/kg p.o.", "result": "did not significantly reduce"},
      {"measurement": "reduction of D-amphetamine-induced locomotor activity", "setting": "[3]; combination: Compound b 0.19 mg/kg p.o. with quetiapine 10 mg/kg s.c., vs D-amphetamine alone group", "result": "did significantly reduce"},
      {"measurement": "reduction of D-amphetamine-induced locomotor activity", "setting": "[3]; combination: Compound b 0.019 or 0.06 mg/kg p.o. with quetiapine 10 mg/kg s.c.", "result": "did not significantly reduce"},
      {"measurement": "reduction of haloperidol induced catalepsy", "setting": "[4]; 60 minute time point, Compound b 0.06, 0.19, 0.6 and 1.9 mg/kg p.o. 30 min before haloperidol 2 mg/kg s.c., P<0.05", "result": "reduced haloperidol induced catalepsy"},
      {"measurement": "reduction of haloperidol induced catalepsy", "setting": "[4]; 4 hour time point, 1.9 mg/kg p.o. (only this dose) before haloperidol 2 mg/kg s.c.", "result": "significant reduction"}
    ]},
    {"smiles": "O=C(CCCN1CCC(O)(c2ccc(Cl)cc2)CC1)c1ccc(F)cc1", "note": "[Haloperidol, haloperidol]", "values": [
      {"measurement": "mice with catalepsy of up to 60 seconds", "setting": "[4]; haloperidol 2 mg/kg s.c. alone", "result": "60-90 % of mice"}
    ]},
    {"smiles": "C[C@H](N)Cc1ccccc1", "note": "[Amphetamine, D-amphetamine]", "values": [
      {"measurement": "locomotor activity in habituated rats", "setting": "[3]; D-amphetamine 1 mg/kg s.c. alone, p<0.001", "result": "significantly increased"}
    ]},
    {"smiles": "OCCOCCN1CCN(C2=Nc3ccccc3Sc3ccccc32)CC1", "note": "[quetiapine, 11-[4-[2-(2-hydroxyethoxy)ethyl]-1-piperazinyl]dibenzo[b,f][1,4]thiazepine]", "values": [
      {"measurement": "attenuation of amphetamine-induced locomotor activity", "setting": "[3]; quetiapine alone 10 mg/kg s.c.", "result": "did not significantly attenuate"},
      {"measurement": "attenuation of amphetamine-induced locomotor activity", "setting": "[3]; quetiapine alone 10 mg/kg s.c., listed as Quetiapine", "result": "not"},
      {"measurement": "attenuation of amphetamine-induced locomotor activity", "setting": "[3]; quetiapine alone 20, 40 and 60 mg/kg s.c.", "result": "significantly attenuated"},
      {"measurement": "threshold for significantly reducing D-amphetamine-induced locomotor activity", "setting": "[3]; quetiapine alone s.c.", "result": 20, "unit": "mg/kg"}
    ]}
  ]
}
